Assay results published in patent publication US20240115557A1, “INHIBITORS OF RNA-GUIDED NUCLEASES AND USES THEREOF” (The Brigham and Women's Hospital, Inc., priority 2022, published 2024).

Biological target: T1, SaCas9 (Staphylococcus aureus, UniProt J7RUA5)
T1 sequence (J7RUA5 1-1053): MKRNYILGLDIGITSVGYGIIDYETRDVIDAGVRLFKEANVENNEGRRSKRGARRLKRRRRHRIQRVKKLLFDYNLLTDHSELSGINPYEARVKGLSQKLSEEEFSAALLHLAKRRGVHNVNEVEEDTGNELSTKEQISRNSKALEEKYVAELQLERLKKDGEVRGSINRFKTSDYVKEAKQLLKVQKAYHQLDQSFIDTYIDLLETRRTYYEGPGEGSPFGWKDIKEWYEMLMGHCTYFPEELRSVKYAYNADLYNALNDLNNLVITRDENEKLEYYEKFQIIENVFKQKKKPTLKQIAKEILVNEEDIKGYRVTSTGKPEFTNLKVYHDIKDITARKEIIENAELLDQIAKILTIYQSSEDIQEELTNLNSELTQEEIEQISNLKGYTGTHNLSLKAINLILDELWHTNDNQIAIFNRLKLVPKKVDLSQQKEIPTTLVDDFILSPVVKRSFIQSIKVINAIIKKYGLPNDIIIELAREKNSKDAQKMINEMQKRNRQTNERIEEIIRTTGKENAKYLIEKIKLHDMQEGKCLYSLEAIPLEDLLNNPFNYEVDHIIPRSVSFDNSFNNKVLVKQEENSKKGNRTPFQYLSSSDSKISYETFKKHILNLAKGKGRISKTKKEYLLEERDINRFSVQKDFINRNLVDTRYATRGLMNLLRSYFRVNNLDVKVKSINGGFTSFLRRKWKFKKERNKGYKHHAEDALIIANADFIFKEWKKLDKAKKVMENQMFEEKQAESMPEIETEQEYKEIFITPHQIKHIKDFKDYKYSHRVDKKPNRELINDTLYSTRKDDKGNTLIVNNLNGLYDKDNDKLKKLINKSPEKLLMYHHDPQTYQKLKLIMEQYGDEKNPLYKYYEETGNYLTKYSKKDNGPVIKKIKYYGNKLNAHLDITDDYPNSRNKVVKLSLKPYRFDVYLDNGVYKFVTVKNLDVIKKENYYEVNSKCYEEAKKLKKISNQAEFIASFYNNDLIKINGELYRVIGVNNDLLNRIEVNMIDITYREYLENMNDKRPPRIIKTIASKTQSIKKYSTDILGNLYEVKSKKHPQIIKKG
Assay: Strand displacement assay, SaCas9 primary screen
Assay type: biochemical
Conditions: for Auto Zscore Rep 1 / Auto Zscore Rep 2 / Normalized Zscore Rep 1 / Normalized Zscore Rep 2: SaCas9 primary screen; for Auto Zscore Rep 1 / Normalized Zscore Rep 1: replicate 1; for Auto Zscore Rep 2 / Normalized Zscore Rep 2: replicate 2; for Normalized Zscore Rep 1 / Normalized Zscore Rep 2: weaker potential hits; for 3 sigma Hit: flag 1 = hit at 3 sigma; for 5 sigma Hit: flag 1 = hit at 5 sigma
Method in brief: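 Cas9 RNP (1:1.2 protein:gRNA) pre-formed in 20 mM Tris-HCl pH 7.5, 100 mM KCl, 5 mM MgCl2, used at 10 nM (2× stock) with Alexa-Fluor 647 substrate/quencher at 1 nM/5 nM (2× stock). Reaction ran 2.5 h at 37°C; strand displacement read as fluorescence. Hits called by Z-score: 3–5σ weak, >5σ strong.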

Compound: COc1ccc(OC)c(S(=O)(=O)Nc2cnc(N3CCCC3)c(C(=O)O)c2)c1 [Cpd F293-0436]
- Auto Zscore Rep 1: −1.371
- Auto Zscore Rep 2: 1.264
- Normalized Zscore Rep 1: 0.1977
- Normalized Zscore Rep 2: 0.2223
- 3 sigma Hit: 1

Compound: O=C(O)c1cc(NS(=O)(=O)c2ccc3c(c2)CCCC3)cnc1N1CCCC1 [Cpd F293-0441]
- Auto Zscore Rep 1: 1.399
- Auto Zscore Rep 2: 1.863
- Normalized Zscore Rep 1: 0.3305
- Normalized Zscore Rep 2: 0.3044
- 3 sigma Hit: 1
- 5 sigma Hit: 1

Compound: Cc1cc(C)c(S(=O)(=O)Nc2cnc(N3CCCC3)c(C(=O)O)c2)cc1C [Cpd F293-0458]
- Auto Zscore Rep 1: 1.794
- Auto Zscore Rep 2: 2.846
- Normalized Zscore Rep 1: 0.4509
- Normalized Zscore Rep 2: 0.429
- 3 sigma Hit: 1
- 5 sigma Hit: 1

Compound: CCN(CCN(C)C)c1ncc(NS(=O)(=O)c2cc(C)c(C)cc2C)cc1C(=O)O [Cpd F293-0515]
- Auto Zscore Rep 1: 2.129
- Auto Zscore Rep 2: 2.544
- Normalized Zscore Rep 1: 0.2953
- Normalized Zscore Rep 2: 0.3056
- 3 sigma Hit: 1
- 5 sigma Hit: 1

Compound: CCCCN(CC)c1ncc(NS(=O)(=O)CC)cc1C(=O)O [Cpd F293-0526]
- Auto Zscore Rep 1: 0.7951
- Auto Zscore Rep 2: −0.08392
- Normalized Zscore Rep 1: 0.179
- Normalized Zscore Rep 2: 0.186
- 3 sigma Hit: 1

Compound: CCCCN(CC)c1ncc(NS(C)(=O)=O)cc1C(=O)O [Cpd F293-0529]
- Auto Zscore Rep 1: 0.1547
- Auto Zscore Rep 2: −0.2374
- Normalized Zscore Rep 1: 0.1815
- Normalized Zscore Rep 2: 0.1895
- 3 sigma Hit: 1

Compound: CCS(=O)(=O)Nc1cnc(N(CC(C)C)CC(C)C)c(C(=O)O)c1 [Cpd F293-0563]
- Auto Zscore Rep 1: 1.978
- Auto Zscore Rep 2: 2.223
- Normalized Zscore Rep 1: 0.2792
- Normalized Zscore Rep 2: 0.3121
- 3 sigma Hit: 1
- 5 sigma Hit: 1

Compound: Cc1cc(C)c(S(=O)(=O)Nc2cnc(N(CC(C)C)CC(C)C)c(C(=O)O)c2)cc1C [Cpd F293-0589]
- Auto Zscore Rep 1: 1.656
- Auto Zscore Rep 2: 0.2997
- Normalized Zscore Rep 1: 0.335
- Normalized Zscore Rep 2: 0.2929
- 3 sigma Hit: 1
- 5 sigma Hit: 1

Compound: CCN(CC)c1ncc(NS(=O)(=O)c2cc(C)c(C)cc2C)cc1C(=O)O [Cpd F293-0740]
- Auto Zscore Rep 1: 0.2771
- Auto Zscore Rep 2: −0.1319
- Normalized Zscore Rep 1: 0.2333
- Normalized Zscore Rep 2: 0.2114
- 3 sigma Hit: 1
- 5 sigma Hit: 1

Compound: O=C(O)c1cc(NS(=O)(=O)c2cc(F)ccc2F)cnc1N1CCOCC1 [Cpd F293-0775]
- Auto Zscore Rep 1: −0.9384
- Auto Zscore Rep 2: 0.6834
- Normalized Zscore Rep 1: 0.1939
- Normalized Zscore Rep 2: 0.1646
- 3 sigma Hit: 1

Compound: CN(C)c1ncc(NS(=O)(=O)c2cc(F)ccc2F)cc1C(=O)O [Cpd F293-0814]
- Auto Zscore Rep 1: 2.553
- Auto Zscore Rep 2: 2.947
- Normalized Zscore Rep 1: 0.2358
- Normalized Zscore Rep 2: 0.2376
- 3 sigma Hit: 1
- 5 sigma Hit: 1

Compound: CN(C)c1ncc(NS(=O)(=O)c2ccc(F)c(F)c2)cc1C(=O)O [Cpd F293-0815]
- Auto Zscore Rep 1: 1.676
- Auto Zscore Rep 2: 1.235
- Normalized Zscore Rep 1: 0.2087
- Normalized Zscore Rep 2: 0.159
- 3 sigma Hit: 1

Compound: CCS(=O)(=O)Nc1cnc(N(C)CCCc2c(C)nn(C)c2C)c(C(=O)O)c1 [Cpd F293-0908]
- Auto Zscore Rep 1: −0.5672
- Auto Zscore Rep 2: 0.4148
- Normalized Zscore Rep 1: 0.2527
- Normalized Zscore Rep 2: 0.2772
- 3 sigma Hit: 1
- 5 sigma Hit: 1

Compound: CCN(Cc1ccccc1)c1ccc(NS(=O)(=O)c2c(C)cc(C)cc2C)cc1C(=O)O [Cpd F294-0002]
- Auto Zscore Rep 1: −0.1185
- Auto Zscore Rep 2: 0.01199
- Normalized Zscore Rep 1: 0.2241
- Normalized Zscore Rep 2: 0.205
- 3 sigma Hit: 1
- 5 sigma Hit: 1

Compound: CCN(Cc1ccccc1)c1ccc(NS(=O)(=O)c2ccccc2)cc1C(=O)O [Cpd F294-0004]
- Auto Zscore Rep 1: −1.138
- Auto Zscore Rep 2: −1.139
- Normalized Zscore Rep 1: 0.2186
- Normalized Zscore Rep 2: 0.1863
- 3 sigma Hit: 1

Compound: CCN(Cc1ccccc1)c1ccc(NS(=O)(=O)CC)cc1C(=O)O [Cpd F294-0006]
- Auto Zscore Rep 1: −0.2858
- Auto Zscore Rep 2: −0.7265
- Normalized Zscore Rep 1: 0.1668
- Normalized Zscore Rep 2: 0.1791
- 3 sigma Hit: 1

Compound: CCN(Cc1ccccc1)c1ccc(NS(C)(=O)=O)cc1C(=O)O [Cpd F294-0009]
- Auto Zscore Rep 1: 0.01198
- Auto Zscore Rep 2: 0.247
- Normalized Zscore Rep 1: 0.1769
- Normalized Zscore Rep 2: 0.155
- 3 sigma Hit: 1

Compound: CCN(Cc1ccccc1)c1ccc(NS(=O)(=O)c2cc(C)ccc2C)cc1C(=O)O [Cpd F294-0010]
- Auto Zscore Rep 1: −0.2001
- Auto Zscore Rep 2: 1.494
- Normalized Zscore Rep 1: 0.1692
- Normalized Zscore Rep 2: 0.1845
- 3 sigma Hit: 1

Compound: CCN(Cc1ccccc1)c1ccc(NS(=O)(=O)c2cc(OC)ccc2OC)cc1C(=O)O [Cpd F294-0012]
- Auto Zscore Rep 1: −1.677
- Auto Zscore Rep 2: −1.264
- Normalized Zscore Rep 1: 0.1772
- Normalized Zscore Rep 2: 0.1434
- 3 sigma Hit: 1

Compound: O=C(O)c1cc(NS(=O)(=O)N2CCOCC2)ccc1N1CCCC(CN2CCCC2)C1 (stereo not shown) [Cpd F294-1002]
- Auto Zscore Rep 1: −0.7997
- Auto Zscore Rep 2: −0.2997
- Normalized Zscore Rep 1: 0.2452
- Normalized Zscore Rep 2: 0.1681
- 3 sigma Hit: 1
- 5 sigma Hit: 1

Compound: Cc1cccc(NC(=O)C2CCCN(c3ccc(-c4ccccc4)nn3)C2)c1 (stereo not shown) [Cpd F305-0007]
- Auto Zscore Rep 1: −0.4204
- Auto Zscore Rep 2: −0.1511
- Normalized Zscore Rep 1: 0.1614
- Normalized Zscore Rep 2: 0.1636
- 3 sigma Hit: 1

Compound: COc1ccc(-c2nc(N)s[n+]2-c2ccccc2)cc1 [Cpd T0501-2049]
- Auto Zscore Rep 1: 0.5613
- Auto Zscore Rep 2: 0.7691
- Normalized Zscore Rep 1: 0.6053
- Normalized Zscore Rep 2: 0.6033
- 3 sigma Hit: 1
- 5 sigma Hit: 1

Compound: C=C1C(C(=O)NCc2ccco2)C1C(=O)NCc1ccco1 (stereo not shown) [Cpd T0501-2919]
- Auto Zscore Rep 1: 0.7411
- Auto Zscore Rep 2: 0.4717
- Normalized Zscore Rep 1: 0.507
- Normalized Zscore Rep 2: 0.5892
- 3 sigma Hit: 1
- 5 sigma Hit: 1
